For one data set, the target named is T1, 5-HT2B receptor (Homo sapiens, UniProt P41595).
T1 construct: host or cells: HEK293
The data set can be described thus: cell-based. The following applies: Ca^2+ flux, agonist; for EC50: read-out: 5-HT2B EC50. The procedure: (§1) Functional Assays at 5-HT2A, 5-HT2B, and 5-HT1A. Agonist activity at 5-HT2A, 5-HT2B, and 5-HT1A receptors was determined using a FLIPR Ca^2+ flux assay at WuXi AppTec (Hong Kong) Limited according to their standard protocols. Briefly, stably transfected cells expressing the receptor of interest (HEK293 for 5-HT2A and 5-HT2B; CHO cells for 5-HT1A) were grown and plated in a 384 well plate and incubated at 37° C. and 5% CO2 overnight. A solution of 250 mM probenecid in 1 mL FLIPR assay buffer was prepared fresh. This was combined with a fluorescent dye (Fluo-4 Direct™) to make a final assay concentration of 2.5 mM. […] The fluorescent dye was then added to the assay plate along with assay buffer to a final volume of 40 μL. The cell plate was incubated for 50 min at 37° C. and 5% CO2 and placed into the FLIPR Tetra along with the compound plate. 10 μL of references and compounds were then transferred from the compound plate into the cell plate and the fluorescent signal was read.

Another data set deals with T2, 5-HT1A receptor (Homo sapiens, UniProt P08908).
T2 construct: host or cells: CHO cells
T2 sequence (P08908 1-422): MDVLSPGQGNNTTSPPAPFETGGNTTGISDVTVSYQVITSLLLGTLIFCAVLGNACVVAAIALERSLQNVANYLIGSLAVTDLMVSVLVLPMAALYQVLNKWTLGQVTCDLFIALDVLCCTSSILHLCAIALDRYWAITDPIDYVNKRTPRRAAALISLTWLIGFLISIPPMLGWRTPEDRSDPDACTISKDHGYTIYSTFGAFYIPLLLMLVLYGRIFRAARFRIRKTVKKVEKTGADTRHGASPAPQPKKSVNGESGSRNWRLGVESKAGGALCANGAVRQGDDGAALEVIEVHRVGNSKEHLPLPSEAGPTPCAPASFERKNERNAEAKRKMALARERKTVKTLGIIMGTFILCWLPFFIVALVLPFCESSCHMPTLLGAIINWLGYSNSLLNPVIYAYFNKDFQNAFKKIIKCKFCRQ
The data set can be described thus: cell-based. The conditions noted are these: Ca^2+ flux, agonist; for EC50: read-out: 5-HT1A EC50. The method, then: as §1

The target in data set [1] is T3, 5-HT2A receptor (Homo sapiens, UniProt P28223).
T3 construct: host or cells: HEK293
The data set can be described thus: cell-based. In kind it is cell-based. The conditions noted are these: Ca^2+ flux, agonist; for EC50: read-out: 5-HT2A EC50. The procedure:
as §1

Data set [2] can be described thus: Metabolic stability in rat liver microsomes (RLM). The conditions noted are these: for t1/2: RLM, 0.50 mg protein per mL; for microsomal CLint at 1 μM: both, rat, pooled rat liver microsomes, pH 7.4. In general terms: Liver microsomes are a subcellular fraction often used to study metabolism.
Data set [3] can be described thus: Metabolic stability in mouse liver microsomes (MLM). In kind it is in vitro ADME. The following applies: 0.50 mg protein per mL; for t1/2: MLM (CD-1), 1 μM; for microsomal CLint at 1 μM: mouse, pooled mouse liver microsomes, pH 7.4, MLM (CD-1). An excerpt:
MLM Stability Pooled MLM from CD-1 mice (BIOIVT M00501) were used.

Data set [4] deals with T3, 5-HT2A receptor. The data set can be described thus: biochemical. The format is binding. The following applies: 1 nM [^3H]ketanserin, HEK293 stable cell line; read-out: 5-HT2A Receptor Ki (nM) ([^3H]ketanserin). The procedure:
Affinity of the test compounds for the 5-HT2A receptor was determined in radioligand binding experiments with [^3H]ketanserin by WuXi AppTec (Hong Kong) Limited, using methods adapted from the literature and under conditions described in Table 1.

The target in a further data set is 5-HT1B receptor (Homo sapiens, UniProt P28222). The data set can be described thus: cAMP accumulation agonist assay at 5-HT1B. The format is cell-based. The conditions noted are these: cAMP, agonist; for EC50: read-out: 5-HT1B EC50. The method, then: Disclosed compounds were tested for agonist activity at several serotonin receptor subtypes (5-HT2A, […], 5-HT2C, and 5-HT1A) using Ca^2+ flux functional assays and the 5-HT1B receptor using a cAMP accumulation assay, with the results summarized in Table 4. […] Potent agonist activity was also observed at the other serotonin receptors tested, although the selectivity profile among the receptors varied across compounds. […]. However, at the same time, the N-propyl compounds were more efficacious agonists at 5-HT2B than the corresponding N-methyl compounds. The selectivity of disclosed compounds for 5-HT2A over 5-HT2C and 5-HT1A was less predictable and varied widely across compounds, ranging from ˜1:6 to ˜20:1 (2C/2A) in the case of 5-HT2C and from ˜1:4 to >100:1 (1A/2A) in the case of 5-HT1A. […] An azetidinyl amide substituent tended to increase potency at 5-HT1A relative to 5-HT2A.
Functional Assay at 5-HT1B. Agonist activity at 5-HT1B was determined using a cAMP accumulation protocol at WuXi AppTec (Hong Kong) Limited according to their standard protocols. Briefly, stably transfected cells were plated in an OptiPlate-384 well plate, incubated at RT for 60 mins, and cAMP standard solution (800 nM, 10 μL) was added to the blank well. Then, 10 μL detection reagent was added to each well, the plate incubated for 60 mins at RT, and the plate read using EnVision.
In general terms: Cyclic AMP is a second messenger, typically raised through Gs and lowered through Gi signalling.

Data set [5] is described as follows: Metabolic stability in human liver microsomes (HLM). In kind it is in vitro ADME. The conditions noted are these: for t1/2: 1 μM, 0.50 mg protein per mL. The text has this: HLM Stability. Pooled HLM from adult male and female donors (Corning 452117) were used.
Where [6] appears, read: both sexes, human, pooled human liver microsomes, pH 7.4, 0.50 mg protein per mL.

Structures are written as SMILES.

The text below walks through data of US20230116703A1, “NOVEL ERGOLINES AND METHODS OF TREATING MOOD DISORDERS” (priority 2021, published 2023).

What is called EC50 is the concentration at which the effect is half-maximal. The microsomal CLint is the rate of metabolic loss divided by the concentration. One may read the Ki as a measure of affinity in units of concentration, obtained from inhibition or displacement. As usually defined, the half-life is the time in which the quantity being followed falls by half. High values mean slow loss, low ones fast loss.

Chain of 5-HT1B receptor (P28222 whole entry): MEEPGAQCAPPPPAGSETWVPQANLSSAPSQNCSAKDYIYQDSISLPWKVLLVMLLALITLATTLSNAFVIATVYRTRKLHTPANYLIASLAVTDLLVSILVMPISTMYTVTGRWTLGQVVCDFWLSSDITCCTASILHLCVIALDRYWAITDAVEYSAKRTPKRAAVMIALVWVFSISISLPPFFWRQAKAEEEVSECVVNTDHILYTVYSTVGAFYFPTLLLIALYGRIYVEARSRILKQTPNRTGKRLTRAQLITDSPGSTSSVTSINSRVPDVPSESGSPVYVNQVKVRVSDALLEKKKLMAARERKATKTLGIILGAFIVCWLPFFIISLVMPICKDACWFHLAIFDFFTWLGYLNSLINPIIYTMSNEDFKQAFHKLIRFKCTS
T1 sequence (P41595 whole entry): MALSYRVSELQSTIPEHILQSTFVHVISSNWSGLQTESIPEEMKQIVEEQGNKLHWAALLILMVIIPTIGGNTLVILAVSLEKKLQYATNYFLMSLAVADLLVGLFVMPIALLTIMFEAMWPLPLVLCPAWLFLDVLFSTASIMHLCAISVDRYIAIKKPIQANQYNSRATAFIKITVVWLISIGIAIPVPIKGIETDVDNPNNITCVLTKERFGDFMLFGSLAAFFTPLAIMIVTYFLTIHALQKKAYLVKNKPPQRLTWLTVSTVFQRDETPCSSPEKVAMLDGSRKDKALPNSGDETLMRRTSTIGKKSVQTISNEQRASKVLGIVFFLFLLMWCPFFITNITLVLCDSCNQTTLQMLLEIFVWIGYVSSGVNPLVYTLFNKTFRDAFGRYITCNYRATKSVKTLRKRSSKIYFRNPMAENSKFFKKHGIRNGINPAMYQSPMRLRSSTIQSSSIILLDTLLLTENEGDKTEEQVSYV
T3 sequence (P28223 whole entry): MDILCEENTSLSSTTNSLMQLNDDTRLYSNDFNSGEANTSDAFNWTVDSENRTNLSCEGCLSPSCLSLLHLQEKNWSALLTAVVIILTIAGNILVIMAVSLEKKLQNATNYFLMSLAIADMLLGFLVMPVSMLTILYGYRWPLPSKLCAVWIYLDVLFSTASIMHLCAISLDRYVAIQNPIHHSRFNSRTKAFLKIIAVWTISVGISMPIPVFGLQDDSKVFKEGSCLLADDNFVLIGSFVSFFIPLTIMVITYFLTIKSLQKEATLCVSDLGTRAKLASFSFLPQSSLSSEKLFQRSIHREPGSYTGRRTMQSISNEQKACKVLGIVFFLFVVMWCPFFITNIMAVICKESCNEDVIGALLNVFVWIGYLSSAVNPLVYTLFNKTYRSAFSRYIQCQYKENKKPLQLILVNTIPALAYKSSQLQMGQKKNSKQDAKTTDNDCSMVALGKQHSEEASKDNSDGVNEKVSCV

As for `CCN(CC)C(=O)[C@@H]1C=C2c3cccc4[nH]cc(c34)C[C@H]2N(Cc2ccccc2O)C1` [Compound 16, (6aR,9R)—N,N-diethyl-7-(2-hydroxybenzyl)-4,6,6a,7,8,9-hexahydroindolo[4,3-fg]quinoline-9-carboxamide], the EC50 was above 10 µM on 5-HT2B receptor, above 10 µM at 5-HT1A receptor, 0.547 µM at 5-HT2A receptor [1] and 0.682 µM at 5-HT1B receptor. Further, the “t1/2” value in data set [2] stood at 2.2 min; in data set [3], 1.3 min; in data set [5], 4.9 min. The microsomal CLint at 1 μM in data set [2] was determined as 616 µL/min/mg; in data set [3], 1050 µL/min/mg; in data set [5] (setting [6]), 286 µL/min/mg. For the same compound, at 5-HT2A receptor [4], the Ki was 2.18 nM.
`CCN(CC)C(=O)[C@@H]1C=C2c3cccc4[nH]cc(c34)C[C@H]2N(Cc2cccc(OC)c2)C1` [Compound 18, (6aR,9R)—N,N-diethyl-7-(3-methoxybenzyl)-4,6,6a,7,8,9-hexahydroindolo[4,3-fg]quinoline-9-carboxamide]: the EC50 on 5-HT2B receptor was above 10 µM; at 5-HT1A receptor, above 10 µM; at 5-HT2A receptor [1], 0.227 µM; on 5-HT1B receptor, 1.78 µM. Besides, the figures for the “t1/2” value in data set [2], in data set [3] and in data set [5] were 5.3 min, 2.6 min and 13.6 min, respectively. For the same compound, the microsomal CLint at 1 μM was found to be 263 µL/min/mg in data set [2], 524 µL/min/mg in data set [3] and 102 µL/min/mg in data set [5] (setting [6]). At 5-HT2A receptor [4], the Ki is 3.41 nM.
For the compound `CCN(CC)C(=O)[C@@H]1C=C2c3cccc4[nH]cc(c34)C[C@H]2N(Cc2ccc(OC)cc2)C1` [Compound 19, (6aR,9R)—N,N-diethyl-7-(4-methoxybenzyl)-4,6,6a,7,8,9-hexahydroindolo[4,3-fg]quinoline-9-carboxamide], the EC50 on 5-HT2B receptor is above 10 µM; at 5-HT1A receptor it was above 10 µM; on 5-HT2A receptor [1] it was 2.96 µM; on 5-HT1B receptor, 5.85 µM. Also, on 5-HT1A receptor, the “5-HT1A % Act @ Max Dose” value was −0.65%. Also, the “t1/2” value amounted to 10.0 min in data set [2], 7.2 min in data set [3] and 16.8 min in data set [5]. Further, the microsomal CLint at 1 μM in data set [2] worked out at 139 µL/min/mg; in data set [3], 193 µL/min/mg; in data set [5] (setting [6]), 82.7 µL/min/mg. In addition, the Ki at 5-HT2A receptor [4] came out at 5.58 nM.
As to `CCN(CC)C(=O)[C@@H]1C=C2c3cccc4[nH]cc(c34)C[C@H]2N(CCc2cccc(OC)c2)C1` [Compound 20, (6aR,9R)—N,N-diethyl-7-(3-methoxyphenethyl)-4,6,6a,7,8,9-hexahydroindolo[4,3-fg]quinoline-9-carboxamide], the “5-HT2B % Act @ Max Dose” value on 5-HT2B receptor is recorded as 3.60%. Moreover, the EC50 on 5-HT2B receptor was above 10 µM; on 5-HT1A receptor, above 10 µM; on 5-HT2A receptor [1], 0.265 µM; on 5-HT1B receptor it was above 10 µM. Further, the figures for the “t1/2” value in data set [2], in data set [3] and in data set [5] were 1.2 min, 0.9 min and 2.1 min, respectively. In addition, the microsomal CLint at 1 μM in data set [2] worked out at 1150 µL/min/mg; in data set [3], 1550 µL/min/mg; in data set [5] (setting [6]), 649 µL/min/mg. In addition, the Ki at 5-HT2A receptor [4] was 1.03 nM.
As for `CCN(CC)C(=O)[C@@H]1C=C2c3cccc4[nH]cc(c34)C[C@H]2N(CCc2ccc(OC)cc2)C1` [Compound 21, (6aR,9R)—N,N-diethyl-7-(4-methoxyphenethyl)-4,6,6a,7,8,9-hexahydroindolo[4,3-fg]quinoline-9-carboxamide], the EC50 at 5-HT2B receptor was above 10 µM; at 5-HT1A receptor, above 10 µM; on 5-HT2A receptor [1], 0.619 µM; at 5-HT1B receptor it was 2.75 µM. Moreover, the “5-HT1A % Act @ Max Dose” value at 5-HT1A receptor was 8.2%. Further, the “t1/2” value came to 4.3 min in data set [2], 1.9 min in data set [3] and 3.8 min in data set [5]. Also, the microsomal CLint at 1 μM was determined as 323 µL/min/mg in data set [2], 717 µL/min/mg in data set [3] and 368 µL/min/mg in data set [5] (setting [6]). In addition, the Ki on 5-HT2A receptor [4] was 1.93 nM.
For `CCN(CC)C(=O)[C@@H]1C=C2c3cccc4[nH]cc(c34)C[C@H]2N(Cc2ccccn2)C1` [Compound 22, (6aR,9R)—N,N-diethyl-7-(pyridin-2-ylmethyl)-4,6,6a,7,8,9-hexahydroindolo[4,3-fg]quinoline-9-carboxamide], the EC50 on 5-HT2B receptor is above 10 µM; on 5-HT1A receptor, 7.84 µM; on 5-HT2A receptor [1] it was 0.748 µM; at 5-HT1B receptor, 0.847 µM. Moreover, the “t1/2” value came to 13.2 min in data set [2], 9.2 min in data set [3] and 23.8 min in data set [5]. The values for the intrinsic metabolic clearance (microsomal CLint) at 1 μM in data set [2], in data set [3] and in data set [5] (setting [6]) were 105 µL/min/mg, 150 µL/min/mg and 58.2 µL/min/mg, respectively. Besides, at 5-HT2A receptor [4], the Ki came out at 28.4 nM.
For the compound `CCN(CC)C(=O)[C@@H]1C=C2c3cccc4[nH]cc(c34)C[C@H]2N(CCc2ccccn2)C1` [Compound 23, (6aR,9R)—N,N-diethyl-7-(2-(pyridin-2-yl)ethyl)-4,6,6a,7,8,9-hexahydroindolo[4,3-fg]quinoline-9-carboxamide], the EC50 on 5-HT2B receptor is above 10 µM; on 5-HT1A receptor, above 10 µM; at 5-HT2A receptor [1] it was 0.512 µM; on 5-HT1B receptor, 0.45 µM. The “t1/2” value in data set [2] amounted to 4.2 min; in data set [3] it was 1.8 min; in data set [5], 7.2 min. Further, the microsomal CLint at 1 μM in data set [2] is 332 µL/min/mg; in data set [3], 769 µL/min/mg; in data set [5] (setting [6]) it was 193 µL/min/mg. For the same compound, the Ki on 5-HT2A receptor [4] is 26.6 nM.
As for `CN1C[C@H](C(=O)N2CCCC2)C=C2c3cccc4[nH]cc(c34)C[C@H]21` [Int22, ((6aR,9R)-7-methyl-4,6,6a,7,8,9-hexahydroindolo[4,3-fg]quinolin-9-yl)(pyrrolidin-1-yl)methanone], at 5-HT2B receptor, the “5-HT2B % Act @ Max Dose” value is listed as 21.35% and the concentration giving a half-maximal response (EC50) came out at 0.0552 µM. For the same compound, at 5-HT1A receptor, the “5-HT1A % Act @ Max Dose” value turned out to be 103.7% and the EC50 was 0.00882 µM. For the same compound, at 5-HT2A receptor [1], the “5-HT2A % Act @ Max Dose” value is 89.65% and the EC50 amounted to 0.0211 µM. In addition, on 5-HT2A receptor [4], the inhibition constant (Ki) turned out to be 14.9 nM. On 5-HT1B receptor, the “5-HT1B % Act @ Max Dose” value turned out to be 94.25% and the EC50 worked out at 0.00738 µM. For the same compound, in data set [5] (setting [6]), the half-life at 1 μM was above 145 min and the microsomal CLint at 1 μM was below 9.6 µL/min/mg.
